From US10744179B2, “Method for treatment of inflammatory skin disorders with inhibitors of IL-36 proteolytic processing” (THE PROVOST, FELLOWS, FOUNDATION SCHOLARS, & THE OTHER …, priority 2014, dated 2020)
No end group written: not given here. *: point of attachment. CH2Cl = ClC*

Columns and labels:
[1] = system: IL-36β activation by activated neutrophil degranulates; test: IL-36β activation by PMA-activated neutrophil degranulates, HeLa IL-36R bioassay (cytokine ELISA); conditions: HeLa IL36R; for inhibition of the activation of IL-36β by activated neutrophil degranulates: FIG. 5, IL-36β pre-incubated 2 h at 37° with degranulates ± PMSF (1 mM) or Cathepsin G inhibitor 1 (10 μM), cytokine ELISA after 24 h; for inhibition of IL-36β activation by neutrophil degranulates (peptide panel): FIG. 6, 29, 30, degranulates pre-incubated 30 min on ice with peptide titration (20-0.625 μM), then IL36β 2 h at 37°, IL-6 ELISA after 24 h
Protocol: FIG. 29 are graphs showing Neutrophils degranulates pre-incubated for 30 min on ice in the presence or absence of a titration of peptide (20, 10, 5, 2.5, 1.25, 0.625 μM) followed by addition of IL36β for 2 h at 37°. HeLa^IL36R were stimulated for 24 h. IL-6 cytokine concentrations in culture supernatants were determined by ELISA. Note: Elast I-IV serves as negative controls for IL-36β assay.
Primary neutrophils were purified from donor human blood using the plasma-Percoll gradient method. Purity of cell preparations (>90%) was determined by Hematoxylin and Eosin staining of cytospins. To prepare degranulates, neutrophils (10^7 per treatment) were stimulated in the presence or absence of 50 nM PMA in HBSS/0.25% BSA for 1-3 h at 37° C. in a humidified atmosphere with 5% CO2. Supernatants were harvested and clarified by centrifugation. Degranulate aliquots were stored at −80°.
Reactions (40-100 μl final volume) were carried out in protease reaction buffer (50 mM Hepes, pH 7.4/75 mM NaCl/0.1% CHAPS) for 2 h at 37°.
Cytokines and chemokines were measured from cell culture supernatants using specific ELISA kits obtained from R&D systems (human IL-6, IL-8, CXCL1, MCP-1, IL-17C). Each assay was repeated a minimum of three times and all cytokine assays were carried out using triplicate samples from each culture.

[2] = system: IL-36α activation by activated neutrophil degranulates; test: IL-36α activation by PMA-activated neutrophil degranulates, HeLa IL-36R bioassay (cytokine ELISA); type: cell-based, human; conditions: FIG. 5; IL-36α pre-incubated 2 h at 37° with degranulates ± PMSF (1 mM) or Cathepsin G inhibitor 1 (10 μM); HeLa IL36R, cytokine ELISA after 24 h
[3] = system: IL-36β activation by psoriatic skin eluates; test: IL-36β activation by psoriatic skin eluates, HeLa IL-36R bioassay (IL-8 ELISA); type: cell-based, human; conditions: FIG. 40c, IL-36β 500 pM pre-incubated 2 h at 37° with eluates ± cathepsin G inhibitor 1 (10 μM)
Protocol: (§1) Fixomull (2 cm×2 cm) adhesive tape strips were applied to a healthy or psoriatic skin, under firm pressure for 10 seconds. […] Sample eluates were stored at −80° C. Enzymatic assays and bioassays were setup using control and psoriatic eluates as described above.

[4] = system: IL-36α activation by psoriatic skin eluates; test: IL-36α activation by psoriatic skin eluates, HeLa IL-36R bioassay (IL-8 ELISA); type: cell-based, human; conditions: FIG. 40c, IL-36α 500 pM pre-incubated 2 h at 37° with eluates ± cathepsin G inhibitor 1 (10 μM)
Protocol: as §1

Row | Compound | inhibition of the activation of IL-36β by activated neutrophil degranulates [1] | inhibition of the activation of IL-36α by activated neutrophil degranulates [2] | attenuation of IL-36β activation by psoriatic skin eluates [3] | attenuation of IL-36α activation by psoriatic skin eluates [4] | inhibition of IL-36β activation by neutrophil degranulates (peptide panel) [1]
1 | O=S(=O)(F)Cc1ccccc1 [PMSF, phenylmethanesulfonylfluoride] | robustly inhibited | robustly inhibited |  |  | 
2 | CN(C(=O)c1cc2ccccc2cc1C(=O)C(c1cccc2ccccc12)P(=O)(O)O)C1CCN(C(=O)c2ccccc2)CC1 (stereo not drawn) [Cathepsin G Inhibitor I] | robustly inhibited | robustly inhibited | attenuated | attenuated | 
3 | Ala-Phe-Leu-Phe-CMK (AFLF; not fully specified; C-terminal chloromethyl ketone; N-terminal Z; printed: Ala-Phe-Leu-Phe-) [AFLF-CMK] |  |  |  |  | most potent inhibitors
4 | FLF-CMK: Cathepsin G-inhibitory peptide Phe-Leu-Phe with chloromethyl ketone (CMK) at the C-terminus (Phe-Leu-Phe-CH2Cl) |  |  |  |  | most potent inhibitors
5 | Glu-Pro-Phe-CMK (Glu-Pro-Phe-CH2Cl) [EPF-CMK] |  |  |  |  | most potent inhibitors
